Data on 18 compounds can be found in US7319101B2, “COMT inhibitors for the treatment of depression and impaired cognition” (Hoffmann-La Roche Inc., priority 2003, dated 2008).

The structures appear in SMILES notation.

Test system in one data set: not given
Test: not given
Settings: not given
Regarding `Nc1ncnc2c1ncn2[C@@H]1O[C@H](/C=C/CNC(=O)c2cccc(O)c2O)C(O)C1O` (stereo in doubt) [Example 1, N1-{(E)-3-[(3aR,4R,6R,6aR)-5-(6-amino-9H-purin-9-yl)-3,4-dihydroxytetrahydrofuran-2-yl]prop-2-enyl}-2,3-dihydroxy-benzamide], the melting point was 134 °C (dec.). `Nc1ncnc2c1ncn2[C@@H]1O[C@H](/C=C/CNC(=O)c2cc(-c3ccncc3)cc(O)c2O)C(O)C1O` (stereo in doubt) [Example 12, N1-{(E)-3-[(3aR,4R,6R,6aR)-5-(6-amino-9H-purin-9-yl)-3,4-dihydroxytetrahydrofuran-2-yl]prop-2-enyl}-5-pyridin-4-yl-2,3-dihydroxy-benzamide]: the melting point was 133 to 137 °C (dec.). Turning to `Nc1ncnc2c1ncn2[C@@H]1O[C@H](/C=C/CNC(=O)c2cc(Br)cc(O)c2O)C(O)C1O` (stereo in doubt) [Example 2, N1-{(E)-3-[(3aR,4R,6R,6aR)-5-(6-amino-9H-purin-9-yl)-3,4-dihydroxytetrahydrofuran-2-yl]prop-2-enyl}-5-bromo-2,3-dihydroxy-benzamide], the melting point is 123 °C (dec.).

The target of the next data set is T1, catechol-O-methyltransferase (COMT) obtained from rat liver (Rattus norvegicus, UniProt P22734).
T1 construct: from tissue; host or cells: rat liver homogenate
T1 sequence (P22734 1-264): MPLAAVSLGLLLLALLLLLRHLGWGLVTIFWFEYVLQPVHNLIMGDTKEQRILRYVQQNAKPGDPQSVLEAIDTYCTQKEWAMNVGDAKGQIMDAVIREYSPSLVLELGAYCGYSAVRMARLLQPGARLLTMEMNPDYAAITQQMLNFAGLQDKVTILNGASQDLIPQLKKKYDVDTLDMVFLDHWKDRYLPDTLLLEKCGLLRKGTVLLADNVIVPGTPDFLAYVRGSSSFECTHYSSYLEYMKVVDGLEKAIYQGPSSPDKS
The experiment in a line: COMT inhibition, radiochemical assay with rat liver homogenate (Zürcher et al.). The data set is classed as biochemical. The settings on record: rat liver tissue extract; substrate benzene-1,2-diol 2.5 mM, [3H]SAM 183 μM; 15 min preincubation at 37° C., pH 7.6. The protocol: The inhibitory activity can be determined in vitro with COMT obtained from rat liver. Rat liver homogenate is incubated in the presence of a suitable substrate as described by Zürcher et al. in J. Neurochem. 1982, 38, 191-195 and the COMT activity is measured.
IC50 values were determined as follows: The inhibitors were dissolved in Me2SO as 1.2 mM stock solution and further diluted with Me2SO. The reactions were performed in standard polypropylene vials. 25 μl of the inhibitor in varying concentrations from 10^−4 to 10^−9 mol L^−1 were mixed with 215 μl freshly prepared buffer-substrate mixture consisting of 170 μl potassium phosphate buffer (0.1 mol L^−1, pH 7.6), 10 μl MgCl2, (0.1 mol L^−1), 10 μl dithiothreitol (0.065 mol L^−1) and 25 μl of tissue extract. The enzyme preparations were preincubated for 15 min at 37° C. The reaction was started by adding 30 μl substrate (benzene-1,2-diol, 0.025 mol L^−1), 10 μl [^3H]SAM (5.5 mmol L^−1, specific activity: 13.36 Bq mol^−1 (3.61 Cimol^−1) and 20 μl deionized H2O, reaching a final substrate concentration of 2.5 mM and a final [^1H]/[^3H]SAM concentration of 183 μM. The reaction was stopped after incubating the vials in a water-bath at 37° C. for 15 min by addition of 200 μl HOAc (5.7%) containing guaiacol (0.1 g L^−1). The reaction vessels were transferred into polyethylene scintillation vials and 3 ml of scintillation fluid (5 g butyl-PBD, dissolved in 200 ml toluene, made up to 1 L with n-hexane) was added.
The samples were counted in a Beckmann LS 6000 TA scintillation counter.
Take `Nc1ncnc2c1ncn2[C@@H]1O[C@H](/C=C/CNC(=O)c2cc(-c3ccc(F)cc3)cc(O)c2O)C(O)C1O` (stereo in doubt) [Example 8, N1-{(E)-3-[(3aR,4R,6R,6aR)-5-(6-amino-9H-purin-9-yl)-3,4-dihydroxytetrahydrofuran-2-yl]prop-2-enyl}-5-(4-fluoro-phenyl)-2,3-dihydroxy-benzamide]: the IC50 turned out to be 21 nM. Same read-out and setting: for `Nc1ncnc2c1ncn2[C@@H]1O[C@H](/C=C/CNC(=O)c2cc(C(=O)C(F)(F)F)cc(O)c2O)C(O)C1O` (stereo in doubt) [Example 4, N1-{(E)-3-[(3aR,4R,6R,6aR)-5-(6-amino-9H-purin-9-yl)-3,4-dihydroxytetrahydrofuran-2-yl]prop-2-enyl}-5-(2,2,2-trifluoro-acetyl)-2,3-dihydroxy-benzamide] the value was 39 nM. In the case of `Nc1ncnc2c1ncn2[C@@H]1O[C@H](/C=C/CNC(=O)c2cc(C(F)(F)F)cc(O)c2O)C(O)C1O` (stereo in doubt) [Example 16, N1-{(E)-3-[(3aR,4R,6R,6aR)-5-(6-amino-9H-purin-9-yl)-3,4-dihydroxytetrahydrofuran-2-yl]prop-2-enyl}-5-trifluoromethyl-2,3-dihydroxy-benzamide], the midpoint of inhibition, the IC50, lay at 35 nM. The same measure, in the same setting: in the case of `Nc1ncnc2c1ncn2[C@@H]1O[C@H](/C=C/CNC(=O)c2cccc(O)c2O)C(O)C1O` (stereo in doubt) [Example 1, N1-{(E)-3-[(3aR,4R,6R,6aR)-5-(6-amino-9H-purin-9-yl)-3,4-dihydroxytetrahydrofuran-2-yl]prop-2-enyl}-2,3-dihydroxy-benzamide] it was 2600 nM; in that of `Cc1ccc(S(=O)(=O)c2cc(O)c(O)c(C(=O)NC/C=C/[C@H]3O[C@@H](n4cnc5c(N)ncnc54)C(O)C3O)c2)cc1` (stereo in doubt) [Example 18, N1-{(E)-3-[(3aR,4R,6R,6aR)-5-(6-amino-9H-purin-9-yl)-3,4-dihydroxytetrahydrofuran-2-yl]prop-2-enyl}-5-(toluene-4-sulfonyl)-2,3-dihydroxy-benzamide], 213 nM; in that of `Nc1ncnc2c1ncn2[C@@H]1O[C@H](/C=C/CNC(=O)c2cc(C(=O)c3ccncc3)cc(O)c2O)C(O)C1O` (stereo in doubt) [Example 5, N1-{(E)-3-[(3aR,4R,6R,6aR)-5-(6-amino-9H-purin-9-yl)-3,4-dihydroxytetrahydrofuran-2-yl]prop-2-enyl}-5-(pyridine-4-carbonyl)-2,3-dihydroxy-benzamide], 42 nM. Still for that read-out and setting: in the case of `N#Cc1cc(O)c(O)c(C(=O)NC/C=C/[C@H]2O[C@@H](n3cnc4c(N)ncnc43)C(O)C2O)c1` (stereo in doubt) [Example 3, N1-{(E)-3-[(3aR,4R,6R,6aR)-5-(6-amino-9H-purin-9-yl)-3,4-dihydroxytetrahydrofuran-2-yl]prop-2-enyl}-5-cyano-2,3-dihydroxy-benzamide] it was 29 nM; in that of `CN(C)C(=O)/C=C/c1cc(O)c(O)c(C(=O)NC/C=C/[C@H]2O[C@@H](n3cnc4c(N)ncnc43)C(O)C2O)c1` (stereo in doubt) [Example 15, N1-{(E)-3-[(3aR,4R,6R,6aR)-5-(6-amino-9H-purin-9-yl)-3,4-dihydroxytetrahydrofuran-2-yl]prop-2-enyl}-5-((E)-2-dimethylcarbamoyl-vinyl)-2,3-dihydroxy-benzamide], 97 nM; in that of `Cc1ccc(Cc2cc(O)c(O)c(C(=O)NC/C=C/[C@H]3O[C@@H](n4cnc5c(N)ncnc54)C(O)C3O)c2)cc1` (stereo in doubt) [Example 13, N1-{(E)-3-[(3aR,4R,6R,6aR)-5-(6-amino-9H-purin-9-yl)-3,4-dihydroxytetrahydrofuran-2-yl]prop-2-enyl}-5-(4-methyl-benzyl)-2,3-dihydroxy-benzamide], 608 nM.

As for `CN(C)C(=O)c1cc(O)c(O)c(C(=O)NC/C=C/[C@H]2O[C@@H](n3cnc4c(N)ncnc43)C(O)C2O)c1` (stereo in doubt) [Example 14, N1-{(E)-3-[(3aR,4R,6R,6aR)-5-(6-amino-9H-purin-9-yl)-3,4-dihydroxytetrahydrofuran-2-yl]prop-2-enyl}-5-dimethylcarbamoyl-2,3-dihydroxy-benzamide], the IC50 was 2000 nM. `Nc1ncnc2c1ncn2[C@@H]1O[C@H](/C=C/CNC(=O)c2cc(-c3ccncc3)cc(O)c2O)C(O)C1O` (stereo in doubt) [Example 12, N1-{(E)-3-[(3aR,4R,6R,6aR)-5-(6-amino-9H-purin-9-yl)-3,4-dihydroxytetrahydrofuran-2-yl]prop-2-enyl}-5-pyridin-4-yl-2,3-dihydroxy-benzamide] had an IC50 of 23 nM. Same read-out and setting: in the case of `Cc1ccc(C(=O)c2cc(O)c(O)c(C(=O)NC/C=C/[C@H]3O[C@@H](n4cnc5c(N)ncnc54)C(O)C3O)c2)cc1` (stereo in doubt) [Example 19, N1-{(E)-3-[(3aR,4R,6R,6aR)-5-(6-amino-9H-purin-9-yl)-3,4-dihydroxy-tetrahydrofuran-2-yl]prop-2-enyl}-5-(4-methyl-benzoyl)-2,3-dihydroxy-benzamide] it was 34 nM; in that of `Nc1ncnc2c1ncn2[C@@H]1O[C@H](/C=C/CNC(=O)c2cc(Br)cc(O)c2O)C(O)C1O` (stereo in doubt) [Example 2, N1-{(E)-3-[(3aR,4R,6R,6aR)-5-(6-amino-9H-purin-9-yl)-3,4-dihydroxytetrahydrofuran-2-yl]prop-2-enyl}-5-bromo-2,3-dihydroxy-benzamide], 28 nM; in that of `Cc1ccc(-c2cc(O)c(O)c(C(=O)NC/C=C/[C@H]3O[C@@H](n4cnc5c(N)ncnc54)C(O)C3O)c2)cc1` (stereo in doubt) [Example 9, N1-{(E)-3-[(3aR,4R,6R,6aR)-5-(6-amino-9H-purin-9-yl)-3,4-dihydroxytetrahydrofuran-2-yl]prop-2-enyl}-5-p-tolyl-2,3-dihydroxy-benzamide], 23 nM. The same measure, in the same setting: in the case of `Nc1ncnc2c1ncn2[C@@H]1O[C@H](/C=C/CNC(=O)c2cc(Cl)cc(O)c2O)C(O)C1O` (stereo in doubt) [Example 7, N1-{(E)-3-[(3aR,4R,6R,6aR)-5-(6-amino-9H-purin-9-yl)-3,4-dihydroxytetrahydrofuran-2-yl]prop-2-enyl}-5-chloro-2,3-dihydroxy-benzamide] it was 44 nM.

As for `Nc1ncnc2c1ncn2C1OC(C=CCNC(=O)c2cc([N+](=O)[O-])cc(O)c2O)C(O)C1O` (stereo not drawn) [comparative example, N-{3-[5-(6-Amino-purin-9-yl)-3,4-dihydroxy-tetrahydro-furan-2-yl]-allyl}-2,3-dihydroxy-5-nitro-benzamide, reference compound], the IC50 stood at 9 nM.

Compound `Nc1ncnc2c1ncn2[C@@H]1O[C@H](/C=C/CNC(=O)c2cc(-c3nccs3)cc(O)c2O)C(O)C1O` (stereo in doubt) [Example 10, N1-{(E)-3-[(3aR,4R,6R,6aR)-5-(6-amino-9H-purin-9-yl)-3,4-dihydroxytetrahydrofuran-2-yl]prop-2-enyl}-5-thiazol-2-yl-2,3-dihydroxy-benzamide] displayed an IC50 of 27 nM. In turn, `Nc1ncnc2c1ncn2[C@@H]1O[C@H](/C=C/CNC(=O)c2cc(C(=O)C3CCCCC3)cc(O)c2O)C(O)C1O` (stereo in doubt) [Example 6, N1-{(E)-3-[(3aR,4R,6R,6aR)-5-(6-amino-9H-purin-9-yl)-3,4-dihydroxytetrahydrofuran-2-yl]prop-2-enyl}-5-cyclohexanecarbonyl-2,3-dihydroxy-benzamide] displayed an IC50 of 83 nM.

What is called melting point is the temperature, or range, at which the solid turns liquid. What is called IC50 is the point on the concentration scale where inhibition reaches its midpoint.
